From patent US8343963B2, “Sulfamoyl-phenyl-ureido compounds and their use as medicament” (4SC AG, priority 2009, dated 2013)
Values after ≈ are worked out from the molar mass of the structure shown. Read-outs that look alike come from different tables or passages of the source.

What was measured:
[1] = tested on: multiresistant Dd2 strain of Plasmodium falciparum; test: Antiplasmodial activity against Dd2 strain of Plasmodium falciparum ([8-3H]hypoxanthine incorporation); format: cell-based; conditions: 66 h, P. falciparum Dd2, 48 h + 18 h with [8-3H]hypoxanthine, 50% parasite growth inhibition, read-out: Antiplasmodia activity (IC50 class)
Outline: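 Dd2 parasites at 0.3% parasitaemia and 2.5% haematocrit in RPMI 1640 with 10% human serum were exposed to 0.001–100 μM compound for 48 h. [8-3H]hypoxanthine was then added for a further 18 h and incorporation counted by scintillation. IC50 was fitted as 50% growth inhibition.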

[2] = In vitro clearance using human liver microsomes; format: in vitro ADME; conditions: human liver microsomes 0.5 mg/ml, 1 μM compound, 37° C., 0-30 min
Experimental: These experiments were performed at Nikem Research (Via Zambeletti 25; Baranzate, Milan, Italy). Test compounds in duplicate at the final concentration of 1 μM were dissolved in DMSO and pre-incubated for 10 min at 37° C. in phosphate buffer pH 7.4, 3 mM MgCl2, with human liver microsomes at the final concentration of 0.5 mg/ml. After the pre-incubation period, reaction was started by adding the cofactor mixture (NADP, Glc6P, G6P-DH); samples were taken at time 0, 5, 10, 15, 20 and 30 min and added to acetonitrile to quench the metabolic reaction, centrifuged and supernatant analysed and quantified by HPLC/MS. A control sample without cofactors was always added in order to check the chemical stability of test compounds. 7-ethoxycoumarin was added as reference standard. A fixed concentration of verapamil was added in every sample as internal standard for HPLC/MS. The concentration of the remaining compound at different times was determined by HPLC/MS. The rate constant, k (min^−1) derived for the exponential decay equation (peak area vs time) was used to calculate the rate of intrinsic clearance (Cli) of the compounds using the following equations: Cli (μl/min/mg compound)=k×V; where: V (μl/mg compound)=incubation volume/mg compound added. In table 3 the clearance (in vitro metabolic stability) classification was as follows: Cli<10=compound stable; Cli between 10 and 60=low metabolism; Cli between 60 and 600=medium metabolism Cli>600=high metabolism.

[3] = Solubility and solubility-range determination in 50 mM phosphate buffer at different pH; format: physicochemical; conditions: aqueous buffer, kinetic from dmso stock, 1% DMSO, 23° C., read-out: Solubility or solubility range
Experimental: The compounds were dissolved in DMSO at a concentration of 20 mg/ml. These stock solutions were further diluted 1:1 with DMSO (50 μl solution+50 μl DMSO) in seven steps. Subsequently, these solutions were diluted 1:100 (5 μl DMSO-stock+495 μl 50 mM phosphate buffer) in all four pH buffers (respectively: pH=4; pH=6; pH=7.4; pH=9) resulting in a final DMSO concentration of 1% in the buffers. These dilutions were vigorously mixed and transferred into 96-well reading plate. The plates were incubated in a shaker (600 rpm) at 23° C. for 24 hours. After that, the contents of the wells were mixed with a pipette and optical density (OD) was recorded at wavelengths of 550 nm; 600 nm; 650 nm and 700 nm in the Tecan Sunrise plate reader. The cut-off OD sum for an undissolved concentration of a compound was defined as follows: Cut off OD sum=mean blank OD+0.050 OD. For the determination of the solubility range, the following rule was applied: OD>cut off=>compound not dissolved at this concentration OD<cut-off=>compound dissolved at this concentration For the determination of the solubility, a titration curve (OD/concentration) was prepared and the concentrations were determined based on the measured OD of the mixture supernatant after centrifugation. The solubility values are given in μg/ml (table 3).

Row | solubility at 24 h ([3]; pH 4, 50 mM phosphate buffer) [µg/mL] | solubility at 24 h ([3]; pH 6, 50 mM phosphate buffer) [µg/mL] | solubility at 24 h ([3]; pH 7.4, 50 mM phosphate buffer) [µg/mL] | solubility at 24 h ([3]; pH 9, 50 mM phosphate buffer) [µg/mL] | SMILES | IC50 [1] [µM] | In vitro metabolism as determined from Cli [2]
1 | > 200 | > 200 | > 200 | > 200 | CCC(=O)N1CCN(C(=N)c2cccc(NC(=O)Nc3ccc(S(=O)(=O)NCc4ccc(S(N)(=O)=O)cc4)cc3)c2)CC1 [Compound 58, 4-(3-(3-(imino(4-propionylpiperazin-1-yl)methyl)phenyl)ureido)-N-(4-sulfamoylbenzyl)benzenesulfonamide] | < 0.02 | low (Cli between 10 and 60=low metabolism)
2 | 1480 (≈ 2350 µM) | 1290 (≈ 2040 µM) | 763 (≈ 1210 µM) | 456 (≈ 724 µM) | COC(=O)N1CCN(C(=N)c2cccc(NC(=O)Nc3ccc(S(=O)(=O)NCc4ccc(S(N)(=O)=O)cc4)cc3)c2)CC1 [Compound 60, methyl 4-(imino(3-(3-(4-(N-(4-sulfamoylbenzyl)sulfamoyl)phenyl)ureido)phenyl)methyl)piperazine-1-carboxylate] | < 0.02 | medium (Cli between 60 and 600=medium metabolism)
